Compound | melting point [°C]
CCOc1cc2c(cc1S(N)(=O)=O)C(CNC(=O)c1cc(Cl)ccc1OC)CCO2 (stereo not drawn) | 204 to 205
CC(C)c1ccc(CN2CCC(NC(=O)NC(=O)c3ccccc3)CC2)cc1 | 240 to 242
CCCCCCCCS(=O)(=O)NC(Cc1cc2c(N)nccc2s1)C(=O)N1CCC(C)CC1 (stereo not drawn) | 101 to 112
CC(C#CC1CC(Oc2ccc(C(F)(F)F)cc2)C1)N(O)C(N)=O (single isomer, unassigned; (+)) | 113 to 114
CCc1c(C(F)(F)F)noc1NS(=O)(=O)c1cccc2ccccc12 | 135 to 137
C=CCOc1cc2c(cc1C=CC)N(CC=C(C)C)C(=O)CC2 | 87 to 88
CCNC1=NN(c2ccc(Cl)cc2)C(C)C1 (stereo not drawn) | 57 to 58
Cn1c(=O)n(OCc2ccccc2)c(=O)c2cc(F)c(F)cc21 | 167 to 169
O=C(O)/C=C/C(=O)/C=C/c1ccc2c(c1)OCO2 | 170 to 173
O=C1CCC(CN2C(=O)C3(COc4cc5c(cc43)CCO5)c3ccccc32)N1 (stereo not drawn) | 133 to 136
CCC(CC)c1ccc(Cl)c2nc3n(c12)CCCCN3c1ccc(C(=O)N(C)C)cc1C | 113 to 114
CCNCC(=O)N1c2ccccc2NC(=O)c2c1c(C)cn2C | 175 to 176
CC(=O)Nc1nc2c(s1)-c1c(c(-c3c[nH]cn3)nn1-c1ccccc1C(F)(F)F)CC2 | > 300
Cc1ccc(-c2cncn2-c2ccc(S(C)(=O)=O)cc2)cc1 | 156
CCCOc1cc(CCCOc2c(CC(=O)O)cccc2OC)n(Cc2ccccc2OC)n1 | 79 to 82
COc1ccc2c(c1)CCC1(CCCCN1C(=O)C(F)(F)F)C2 (stereo not drawn) | 75 to 76
Brc1cccc(Oc2ccccc2)n1 | 83 to 86
COc1ccc2cc3c(c(-c4ccc(C(F)(F)F)cc4)c2c1)CNC3=O | 219 to 221
COc1cccc(C=CC(=O)C2C(=O)OC(=O)C(C(C)=O)=C2O)c1OC (stereo not drawn) | 175 to 176
Cc1cc(-c2ccccc2)n2nc(N)nc2n1 | 246 to 250
Cc1ccc(C=C2c3ncc(C)cc3CCC2(C)C)cc1 | 153
CCc1cccc(CNC[C@@H](O)[C@H](Cc2cc(F)cc(F)c2)NC(=O)N2CCC(CS(C)(=O)=O)CC2)c1 | 130 to 134
COC1=C(OC)C(=O)C(CCCCCCCCCC(=O)N[C@H](Cc2ccccc2)C(=O)O)=C(C)C1=O | 96 to 98
CCOC1(OCCc2nc(C(C)C)c(Sc3cc(Cl)cc(Cl)c3)n2C)CCCCCC1 | 53 to 54
COc1ccc(C(=O)CCCCCN2CCC(CNC(=O)c3cc(Cl)c(N)cc3OC)CC2)cc1OC | 102 to 105

Compound | melting point [°C]
Nc1ccc(-c2nc3c(F)cccc3s2)cc1 | 219 to 221
CC(=O)c1cc([N+](=O)[O-])c(N)c2c1CCCC2 | 170 to 172
CCc1nn(C2CCCC2)c(N)c1C#N | 171 to 173
O=C1c2cc(Cl)ccc2-n2cccc21 | 92
Cc1nc(N)nc(-c2cccc3ccccc23)c1C | 214 to 215
Cc1cc(C)c2nc(C3CC3)n(Cc3ncc(C4(C(=O)O)CC=CC4)cn3)c2n1 | 203 to 204
COc1cc2c(cc1OCc1ccccc1)C(C1(c3ccccc3OC)CC1)N(C)CC2 (stereo not drawn) | 118
CCN(CC)CCNC(=O)c1cc(Cl)c(N)cc1O | 134 to 136
CC(=O)c1c(C)nc(N(Cc2ccccc2)Cc2ccccc2)c(N)c1NCCc1ccccc1 | 152 to 153
Cc1oc(-c2ccc3ccccc3c2)nc1COc1ccc(CCCC2OCCO2)cc1 | 141 to 142
O=C(O)C(O)c1cccc(COc2ccccc2Cl)c1COc1ccccc1Cl (stereo not drawn) | 101 to 103
CCOC(=O)C1=C(COCCN=[N+]=[N-])NC(C)=C(C(=O)OC)C1c1cccc(C(F)(F)F)c1Cl (stereo not drawn) | 143 to 145
COc1cccc(-c2cc3c(Nc4cccc(Cl)c4)ncnc3[nH]2)c1 | 262 to 263
CCOC(=O)C1C(=O)NCC1CCc1ccc(C(=O)OCC(C)C)cc1 (stereo not drawn) | 98 to 104
CC(C)CCS(=O)(=O)CC[C@H](O)[C@@H](N)CC(C)C | 125 to 126
CCCOC(=O)NCCCC1(O)c2ccccc2C=Cc2c(C)cccc21 (stereo not drawn) | 157 to 159
CCOC(=O)C(O)CCn1cnc2c(Cl)nc(N)nc21 (stereo not drawn) | 163 to 164
CC12CCC1(C)C(=O)OC2=O (stereo not drawn) | 84 to 86
CC(C)(C)CC(C)(C)c1cc(N=Nc2cc(C#N)ccc2Cl)c(O)c(C(C)(C)c2ccccc2)c1 | 190 to 191
CCOC(=O)Nc1cccc(C(=O)CBr)c1 | 108 to 110
CCC(C)(C)NC(=O)c1ccc(S(=O)(=O)Cl)c(OC)c1 | 104
CCC(CC)c1nn(-c2ccc(C(F)(F)F)cn2)cc1CCCO | 79 to 80
Cc1ccc2c(c1)S(=O)CC(COC(=O)Nc1ccccc1)(COC(=O)Nc1ccccc1)C2=O (stereo not drawn) | 65 to 73
OCc1ccc(OCc2ccc(-c3ccccc3)cn2)cc1 | 159 to 160
COc1ccc(Cl)c(NC(=O)Cc2ccc(Cl)cc2)c1 | 149 to 151

Compound | melting point [°C]
COc1c(O)cccc1C=O | 116
Cc1ccccc1-c1c(C(=O)N(C)Cc2cc(C(F)(F)F)cc(C(F)(F)F)c2)c(=O)oc2ccccc12 | 130 to 131
COc1ccc(C2C(C(=O)/C=C/c3ccc(O)c(OC)c3)C(=O)CC(c3ccc(O)c(OC)c3)C2[N+](=O)[O-])cc1 (stereo not drawn) | 83 to 85
CCOC(=O)C(=O)C1C(=O)c2c(OC)ccc3c2C1CCO3 (stereo not drawn) | 104 to 106
OCCCCCCCCOc1ccc2ccccc2c1 | 67 to 69
CC/C(=C\C=C\C(O)(C(F)(F)F)C(F)(F)F)c1cccc(CCc2ccc(CO)c(CO)c2)c1 | 104
CC(=O)Nc1cccc(C=Cc2nc3c(c(=O)n(C)c(=O)n3C)n2C)c1 | > 300
c1ccc2c(c1)Oc1ccncc1O2 | 102 to 108
Cc1ccc(C(=O)NC(NC(=S)Nc2c(F)cccc2F)C(F)(F)F)cc1 (stereo not drawn) | 185 to 186
CC(C)(C)CC(C)(C)NC(=O)c1cc(C(C)(C)C)c(OC(=O)c2cc(C(C)(C)C)c(O)c(C(C)(C)C)c2)c(C(C)(C)C)c1 | 213 to 215
NS(=O)(=O)c1cccc(-c2noc(-c3cnc4c(C(F)(F)F)cc(-c5ccc(C(F)(F)F)cc5)cn34)n2)c1 | 297
Clc1cnc2c(C(Cl)Cl)c(Cl)ccc2c1 | 154
CCOC(=O)C(=CNc1nnc(C)s1)C(=O)c1cc(F)c(Cl)nc1Cl | 142 to 152
O=C(O)C1CC(=C2CCCN(c3ccccc3)C2=O)c2ccc(Cl)cc2N1 (stereo not drawn) | 130 to 133
CCc1nn2ccc3oc(C)cc3c2c1CCNC(C)=O | 128 to 129
CCOC(=O)C(C)Oc1ncn(-c2cccc(C(F)(F)F)c2)n1 (stereo not drawn) | 100 to 102
Cc1[nH]c2ccc(S(=O)(=O)c3cc(F)cc(F)c3)cc2c1CCNC(=O)OC(C)(C)C | 201 to 204
CCCCCCCCCCCCc1ccc2c(Cl)cccc2c1O | 68 to 70
COc1ccc(N2CCC(c3c(N)nc(N)[nH]c3=O)CC2)cc1 | 308
CCOC(=O)c1c(C)cc2c(c1C)C(=O)OC2(C)O (stereo not drawn) | 118 to 120
CCOC(=O)c1cc(-c2ccc(OCc3cccnc3)cc2O[C@H](CCC(=O)O)c2ccccc2C)n[nH]1 | 108 to 110
CS(=O)(=O)N1CCN([C@@H](CNS(=O)(=O)c2ccc(OCc3noc4ccccc34)cc2)C(=O)NO)CC1 | 107
O=C(O)CCCC(=O)NCC1(S)CCCCC1 | 73 to 74
NCC1Cc2cc3c(cc2O1)CCCC3 (stereo not drawn) | > 225
O=S1(=O)c2ccccc2N(c2ccc(OCc3ccccc3)cc2)c2ccccc21 | 203 to 208

Compound | melting point [°C]
O=c1[nH]c2ncc(-c3ccc(F)nc3)nc2n1CC1CCOCC1 | 220 to 222
OC1(c2ccc(-c3cncnc3)cc2)CN2CCC1CC2 (stereo not drawn) | 184 to 185
Cc1nc2c(NC(=O)C(C)(C)C)c(C(=O)C=Cc3ccccc3)ccn2c1C | 108 to 110
CCOC(=O)CNC(=O)CCCCCNC(=O)OC(C)(C)C | 76 to 77
Cc1ccc(-c2ccc3c(c2)C=C(C(=O)Nc2ccc(CNCC4CCCCC4)cc2)CCO3)cc1 | 154 to 155
CC(C)(C#N)Cc1ccc(-c2ccc(CC(C)(C)C#N)c(Cl)c2)cc1Cl | 148 to 156
O=C1C(c2cccc(C(F)(F)F)c2)=C(NC2CC2)OC1c1ccccc1 (stereo not drawn) | 160 to 164
CC(=O)OC(C(=O)O)(C(=O)N(C(C)=O)C(C)=O)c1ccc(Cl)c(C)c1 (stereo not drawn) | 169 to 171
CCCCc1nc2c(N)nc3cc(/C=C/c4ccccc4)ccc3c2n1CC(C)C | 215 to 216
CCN(CC)S(=O)(=O)c1ccc(C(CC2CCCC2)C(=O)Nc2nc3ccc(OC)nc3s2)cc1 (stereo not drawn) | 150 to 152
CC(=O)OC1C(CO)OC(NC(=O)N(CCCl)N=O)C(OC(C)=O)C1OC(C)=O (stereo not drawn) | 143 to 144
CNC(=O)c1cccc(NCC(=O)NCCc2ccc(OC)c(OC)c2)c1 | 93 to 96.5
O=C(c1ccc(O)c(Cl)c1)N1CC=CCC1 | 186 to 189
Cn1cc2c(c1)-c1ccc(Cl)cc1C(c1ccccc1F)=NC2 | 142 to 144
O=C(CCC(CCC(=O)OCc1ccccc1)(CCC(=O)OCc1ccccc1)[N+](=O)[O-])OCc1ccccc1 | 95 to 96
OC1CCN(CCCOc2ccc3cc(-c4n[nH]c5cc(-c6ccccc6)sc45)[nH]c3c2)CC1 | 239 to 242
CCN1C(=O)C=C(c2ccc(Cl)c(Cl)c2)C1=O | 138 to 141
Cc1cc(C)nc(NC(=O)Cc2ccsc2Br)c1 | 72
COC(=O)C1Cc2c([nH]c3ccccc23)C(c2ccccc2)N1 (stereo not drawn) | 217 to 218
COc1ccc(-c2cc(C(=O)NCc3ccccc3)c(=O)n(C)n2)cc1 | 145 to 146
CCCCC(CCCC)n1c(=O)sc2c(=O)[nH]c(N)nc21 | > 175
Cc1c(N2CCN(Cc3ccccc3)CC2)c(F)cc2c(=O)c(C(=O)O)cn(C3CC3)c12 | 209 to 211
CC1(C)CC(CN2CCCNC2=N[N+](=O)[O-])CO1 (stereo not drawn) | 109 to 110

Source: a melting point compilation (Tetko et al.; mined from patent text by program, amines drawn as free bases though some values may be those of a salt)
